The source of these data is patent US11000568B2, “Means and methods for treating copper-related diseases” (HELMHOLTZ ZENTRUM MÜNCHEN—DEUTSCHES FORSCHUNGSZENTRUM FÜR …, priority 2015, dated 2021).

The data set concerns LPP+/− rats. Conditions: rat, in vivo. How it is done:
LPP rats were treated with MB either by daily i.p. injections for 3 or 5 consecutive days, or twice daily i.p. injections for 8 consecutive days at a dose of 150 mg/kg bw or 4 days via the drinking water with D-PA at a dose of 100 mg/kg bw/d or TETA at 480 mg/kg bw/d, respectively (Togashi et al., Hepatology 15, 82-87 (1992)). Based on a mean copper content of 250 μg/g w.w. in Atp7b−/− rat livers at the age of treatment start (Zischka et al., log. cit.), a LPP−/− rat liver of 8 g w.w. contains around 31.5 μmol copper. Single MB doses were chosen equimolar to this copper amount. […] Assuming 40 ml water intake per day for a rat weighing 250 g this translates to a dose of 480 mg/kg bw/d. With respect to the mean liver copper content in LPP−/− rats aged 85 days, the molar ratios of the chelators applied was MB 1:D-PA 4.3:TETA 17.4, respectively. For the intravenous MB application (150 mg/kg bw), catheters connected to a PinPort™ (Instech Laboratories, Inc., USA) were inserted in the femoral vein of the rat, fixed with non-absorbable sutures and subcutaneously tunneled and exteriorized through a skin incision made between the shoulders.

Numbered stars: 1 amine (or outer) side, 2 acyl side, 3 side chain; on linkers, the order of the positions; unused ones are H or OH. Bridge positions count the residues as written; N and C are the ends. Square brackets hold non-standard residues; d marks the D form. Peptide text beside a SMILES is read from it. * marks the point of attachment. X2 = O=C1OC(C2CCCN2[*:1])=NC1C(=S)NC(CO)C(=O)[*:2]; X1 = CC(C)CC(=O)C1=NC(C(=S)NCC(=O)*)C(=O)O1

In the case of `CSCCC(NC(=O)C1CSSCC(NC(=O)C(CO)NC(=O)CNC(=S)C2N=C(C(=O)CC(C)C)OC2=O)C(=O)NC(Cc2ccc(O)cc2)C(=O)N2CCCC2C2=NC(C(=O)O2)C(=S)NC(CO)C(=O)N1)C(=O)O` (centres unmarked) [MB] (X1-SCY[X2]CM-OH; disulfide 2-5; configuration not given here), the “body weight, liver copper concentration, serum AST and bilirubin” value is listed as “remained within the physiological range”; the signs of toxicity entry is listed as “did not exhibit any signs of toxicity”.
